Experimental findings from PubChem BioAssay (NCI) are described below.

Values joined by “and” are separate entries in the source; they are usually repeats but may differ in a detail not shown here. Identical values can stand only once.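 Five compound concentrations were applied to cells in 96-well plates for 48 hours; endpoints were derived by simple linear interpolation of the resulting dose-response curve. GI50 is the concentration that inhibits growth by half. Definition used: TGI = concentration required for complete inhibition of growth.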

Test systems include SK-OV-3 ovarian; ACHN renal; SNB-19 CNS; MALME-3M melanoma; KM12 colon; HOP-92 NSCLC; RXF 393 renal; SR leukemia; CAKI-1 renal; MOLT-4 leukemia.
Holding throughout (assay): DTP human tumour cell line panel, 48 h

As a reminder, the GI50 is the concentration at which growth is held to half of that of the control. The TGI is the concentration at which net growth stops. High values mean lower sensitivity of the cells, low ones greater sensitivity of the cells. As to `CCN(CC)Cc1cc2[nH]c3c4ccc(Cl)cc4ncc3c2cc1OC`, the GI50 with SK-OV-3 ovarian was 14.2 µM and 3.63 µM; with ACHN renal, 5.68 µM and 1.98 µM; in the assay on SNB-19 CNS, 2.63 µM and 3.51 µM; in the assay on MALME-3M melanoma, 1.72 µM and 1.99 µM; in the assay on KM12 colon, 2.18 µM and 1.72 µM; in the assay on HOP-92 NSCLC, 5.14 µM. In addition, the GI50 in the assay with RXF 393 renal was 2.07 µM and 1.68 µM; with SR leukemia, 2.36 µM; in the assay on CAKI-1 renal, 3.36 µM and 2.3 µM; with MOLT-4 leukemia it was 2.24 µM and 2.56 µM. In addition, the TGI in the assay with SK-OV-3 ovarian was 27.3 µM and 12.1 µM; in the assay with ACHN renal, 16.3 µM and 4.98 µM; in the assay on SNB-19 CNS, 7.51 µM and 11.9 µM; in the assay with MALME-3M melanoma, 3.33 µM and 3.75 µM; in the assay on KM12 colon, 7.09 µM and 4.37 µM; in the assay on HOP-92 NSCLC, 22.1 µM. For the same molecule, the TGI was 4.25 µM and 3.27 µM in the assay with RXF 393 renal; 9.14 µM and 9.8 µM in the assay on CAKI-1 renal; > 21.8 µM and 6.8 µM in the assay with MOLT-4 leukemia.
With `Nc1ncnc2c1ncn2C1OC(CO)C(O)C1N` (centres undefined), the TGI with SK-OV-3 ovarian, with ACHN renal, in the assay on SNB-19 CNS, in the assay on MALME-3M melanoma, in the assay on KM12 colon and with HOP-92 NSCLC was over 100 µM in each case. The concentration for total growth inhibition (TGI) with RXF 393 renal, in the assay with SR leukemia, in the assay on CAKI-1 renal and in the assay on MOLT-4 leukemia was over 100 µM throughout.
For `O=C1NC(=NCCCc2ccccc2)S/C1=C\c1ccc2ncccc2c1`, the GI50 is 5.33 µM in the assay with SK-OV-3 ovarian; 5.08 µM in the assay on ACHN renal; 3.69 µM in the assay with SNB-19 CNS; 7.43 µM in the assay on MALME-3M melanoma; 8.84 µM in the assay with KM12 colon; 4.22 µM in the assay on HOP-92 NSCLC. For the same molecule, the GI50 was 3.89 µM in the assay on RXF 393 renal, 3.73 µM in the assay with SR leukemia, 5.09 µM in the assay on CAKI-1 renal and 7.31 µM in the assay on MOLT-4 leukemia. Besides, the TGI in the assay with SK-OV-3 ovarian was 12.2 µM; in the assay on ACHN renal, 15.6 µM; in the assay on SNB-19 CNS, over 22.4 µM; with MALME-3M melanoma, 19.3 µM; with KM12 colon it was over 25 µM; in the assay with HOP-92 NSCLC it was 13.4 µM. Moreover, the TGI in the assay with RXF 393 renal is 10.4 µM; with SR leukemia it was 16.5 µM; in the assay on CAKI-1 renal, over 18.2 µM; with MOLT-4 leukemia, 18.9 µM.
Take `COc1cc2c(=O)[nH]c3cc([N+](=O)[O-])ccc3c2cc1[N+](=O)[O-]`: the GI50 with SK-OV-3 ovarian is 8.7 µM; in the assay on ACHN renal, 3.71 µM; in the assay with SNB-19 CNS, 24.1 µM; in the assay with MALME-3M melanoma it was 9.91 µM; with KM12 colon, 4.67 µM; in the assay on HOP-92 NSCLC, 15.8 µM. Also, the GI50 was 6.99 µM in the assay on RXF 393 renal, 2.95 µM in the assay on SR leukemia, 6.18 µM in the assay on CAKI-1 renal and 3.9 µM in the assay on MOLT-4 leukemia. Further, the concentration for total growth inhibition (TGI) was 38.2 µM with SK-OV-3 ovarian; 91.4 µM in the assay on ACHN renal; over 100 µM in the assay on SNB-19 CNS; over 100 µM in the assay with MALME-3M melanoma; over 100 µM with KM12 colon; over 100 µM with HOP-92 NSCLC. The total growth inhibition concentration (TGI) with RXF 393 renal is 92.2 µM; in the assay on SR leukemia it was over 100 µM; in the assay on CAKI-1 renal, over 100 µM; in the assay with MOLT-4 leukemia, over 100 µM.
As for `O=C(NNc1ccccc1)/C(=C/c1ccc2c(c1)OCO2)NC(=O)c1ccccc1`, the total growth inhibition concentration (TGI) in the assay on SK-OV-3 ovarian, in the assay on ACHN renal, in the assay with SNB-19 CNS, with MALME-3M melanoma, with KM12 colon and with HOP-92 NSCLC was over 100 µM in each case. The concentration for total growth inhibition (TGI) in the assay with RXF 393 renal, with SR leukemia, in the assay with CAKI-1 renal and in the assay on MOLT-4 leukemia was over 100 µM each time.
Turning to `O=C1c2ccccc2C(=O)c2c(OCCOCCO)cccc21`, the concentration for total growth inhibition (TGI) with SK-OV-3 ovarian was over 100 µM; in the assay with ACHN renal, over 100 µM; in the assay on SNB-19 CNS, over 100 µM; in the assay with MALME-3M melanoma it was over 100 µM; in the assay on KM12 colon it was over 100 µM; in the assay on HOP-92 NSCLC, 96.9 µM. Further, the TGI in the assay on RXF 393 renal is over 100 µM; with SR leukemia, over 100 µM; with CAKI-1 renal, 74.2 µM; in the assay with MOLT-4 leukemia, over 100 µM.
